In the supplement of paper PMC10307832:

How the values were obtained:
Test in all cases: relative viability (nuclei count vs DMSO), 5 days (fraction); higher = more cells survive
[1] = test system: H3255
In short: (§1)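 Relative viability divides the nuclei count in treated wells by that in vehicle wells. Lung cancer cell lines were seeded in 1536-well plates, dosed by pin tool the next day, and fixed and stained after 5 days in one step with final 0.05% Triton X-100, 1% formaldehyde and 1 ug/ml Hoechst. Dosing was a single drug or a fixed anchor-drug dose plus five library-drug doses (not always all listed) in √10 steps, and values are medians of duplicate plates imaged at 4×.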

[2] = test system: NCI-H596
In short: as §1

[3] = test system: UMC-11
In short: as §1

[4] = test system: NCI-H322M
In short: as §1

[5] = test system: NCI-H838
In short: as §1

[6] = test system: NCI-H2087
In short: as §1

[7] = test system: LCLC-97TM1
In short: as §1

[8] = test system: BEN
In short: as §1

[9] = test system: NCI-H661
In short: as §1

[10] = test system: HCC-78
In short: as §1

[11] = test system: PC-3 [JPC-3]
In short: as §1

[12] = test system: SK-MES-1
In short: as §1

[13] = test system: LK-2
In short: as §1

[14] = test system: NCI-H1944
In short: as §1

[15] = test system: HCC-15
In short: as §1

[16] = test system: LU99A
In short: as §1

[17] = test system: NCI-H1651
In short: as §1

[18] = test system: NCI-H358
In short: as §1

[19] = test system: LC-2-ad
In short: as §1

[20] = test system: LXF-289
In short: as §1

[21] = test system: NCI-H1666
In short: as §1

[22] = test system: NCI-H650
In short: as §1

COc1cc(N2CCC(C(N)=O)CC2)ccc1Nc1nc(N)c(Cl)c(Nc2ccccc2S(=O)(=O)C(C)C)n1 [HG-5-88-01] + CS(=O)(=O)CCNCc1ccc(-c2ccc3ncnc(Nc4ccc(OCc5cccc(F)c5)c(Cl)c4)c3c2)o1 [Lapatinib] (partner 2 µM)
relative viability ([1]; first compound 0.04 µM): 0.25 | relative viability ([1]; first compound 0.1265 µM): 0.249 | relative viability ([1]; first compound 0.4 µM): 0.244 | relative viability ([1]; first compound 4 µM): 0.212 | relative viability ([2]; first compound 0.04 µM): 0.956 | relative viability ([2]; first compound 0.1265 µM): 1.03 | relative viability ([2]; first compound 0.4 µM): 1.06 | relative viability ([2]; first compound 1.265 µM): 1.12 | relative viability ([2]; first compound 4 µM): 0.781 | relative viability ([3]; first compound 0.04 µM): 0.84 | relative viability ([3]; first compound 0.1265 µM): 1.13 | relative viability ([3]; first compound 0.4 µM): 0.837 | relative viability ([3]; first compound 1.265 µM): 0.927 | relative viability ([3]; first compound 4 µM): 0.632 | relative viability ([4]; first compound 0.04 µM): 0.583 | relative viability ([4]; first compound 0.1265 µM): 0.428 | relative viability ([4]; first compound 0.4 µM): 0.492 | relative viability ([4]; first compound 1.265 µM): 0.501 | relative viability ([4]; first compound 4 µM): 0.485 | relative viability ([5]; first compound 0.04 µM): 0.906 | relative viability ([5]; first compound 0.1265 µM): 0.952 | relative viability ([5]; first compound 0.4 µM): 0.797 | relative viability ([5]; first compound 1.265 µM): 0.708 | relative viability ([5]; first compound 4 µM): 0.498 | relative viability ([6]; first compound 0.04 µM): 1.01 | relative viability ([6]; first compound 0.1265 µM): 0.988 | relative viability ([6]; first compound 0.4 µM): 0.989 | relative viability ([6]; first compound 1.265 µM): 0.899 | relative viability ([6]; first compound 4 µM): 0.735 | relative viability ([7]; first compound 0.04 µM): 0.999 | relative viability ([7]; first compound 0.1265 µM): 0.95 | relative viability ([7]; first compound 0.4 µM): 0.471 | relative viability ([7]; first compound 1.265 µM): 0.683 | relative viability ([7]; first compound 4 µM): 0.301 | relative viability ([8]; first compound 0.04 µM): 0.817 | relative viability ([8]; first compound 0.1265 µM): 0.743 | relative viability ([8]; first compound 0.4 µM): 0.66 | relative viability ([8]; first compound 1.265 µM): 0.586 | relative viability ([8]; first compound 4 µM): 0.545 | relative viability ([9]; first compound 0.04 µM): 0.505 | relative viability ([9]; first compound 0.1265 µM): 0.518 | relative viability ([9]; first compound 0.4 µM): 0.487 | relative viability ([9]; first compound 4 µM): 0.542 | relative viability ([10]; first compound 0.04 µM): 0.737 | relative viability ([10]; first compound 0.1265 µM): 0.465 | relative viability ([10]; first compound 0.4 µM): 0.223 | relative viability ([10]; first compound 1.265 µM): 0.264 | relative viability ([10]; first compound 4 µM): 0.226 | relative viability ([11]; first compound 0.04 µM): 0.408 | relative viability ([11]; first compound 0.1265 µM): 0.466 | relative viability ([11]; first compound 0.4 µM): 0.39 | relative viability ([11]; first compound 1.265 µM): 0.434 | relative viability ([11]; first compound 4 µM): 0.25 | relative viability ([12]; first compound 0.04 µM): 0.442 | relative viability ([12]; first compound 0.1265 µM): 0.453 | relative viability ([12]; first compound 0.4 µM): 0.407 | relative viability ([12]; first compound 1.265 µM): 0.477 | relative viability ([12]; first compound 4 µM): 0.469 | relative viability ([13]; first compound 0.04 µM): 0.94 | relative viability ([13]; first compound 0.1265 µM): 0.841 | relative viability ([13]; first compound 0.4 µM): 0.792 | relative viability ([13]; first compound 1.265 µM): 0.42 | relative viability ([13]; first compound 4 µM): 0.885 | relative viability ([14]; first compound 0.04 µM): 0.656 | relative viability ([14]; first compound 0.1265 µM): 0.84 | relative viability ([14]; first compound 0.4 µM): 0.78 | relative viability ([14]; first compound 1.265 µM): 0.861 | relative viability ([14]; first compound 4 µM): 0.648 | relative viability ([15]; first compound 0.04 µM): 0.878 | relative viability ([15]; first compound 0.1265 µM): 0.83 | relative viability ([15]; first compound 0.4 µM): 0.792 | relative viability ([15]; first compound 1.265 µM): 0.894 | relative viability ([15]; first compound 4 µM): 0.449 | relative viability ([16]; first compound 0.04 µM): 1.03 | relative viability ([16]; first compound 0.1265 µM): 1.02 | relative viability ([16]; first compound 0.4 µM): 1 | relative viability ([16]; first compound 1.265 µM): 0.988 | relative viability ([16]; first compound 4 µM): 0.721 | relative viability ([17]; first compound 0.04 µM): 0.955 | relative viability ([17]; first compound 0.1265 µM): 1 | relative viability ([17]; first compound 0.4 µM): 0.796 | relative viability ([17]; first compound 1.265 µM): 0.863 | relative viability ([17]; first compound 4 µM): 0.882 | relative viability ([18]; first compound 0.04 µM): 0.451 | relative viability ([18]; first compound 0.1265 µM): 0.378 | relative viability ([18]; first compound 0.4 µM): 0.307 | relative viability ([18]; first compound 1.265 µM): 0.256 | relative viability ([18]; first compound 4 µM): 0.304 | relative viability ([19]; first compound 0.04 µM): 0.993 | relative viability ([19]; first compound 0.1265 µM): 1.02 | relative viability ([19]; first compound 0.4 µM): 0.876 | relative viability ([19]; first compound 1.265 µM): 0.908 | relative viability ([19]; first compound 4 µM): 0.629 | relative viability ([20]; first compound 0.04 µM): 0.913 | relative viability ([20]; first compound 0.1265 µM): 0.904 | relative viability ([20]; first compound 0.4 µM): 0.883 | relative viability ([20]; first compound 1.265 µM): 0.928 | relative viability ([20]; first compound 4 µM): 0.867 | relative viability ([21]; first compound 0.04 µM): 0.742 | relative viability ([21]; first compound 0.1265 µM): 0.742 | relative viability ([21]; first compound 0.4 µM): 0.5 | relative viability ([21]; first compound 1.265 µM): 0.463 | relative viability ([21]; first compound 4 µM): 0.293 | relative viability ([22]; first compound 0.04 µM): 0.962 | relative viability ([22]; first compound 0.1265 µM): 1.01 | relative viability ([22]; first compound 0.4 µM): 1.14 | relative viability ([22]; first compound 1.265 µM): 0.943 | relative viability ([22]; first compound 4 µM): 0.475
